Holding throughout (format): cell-based
The subject of test [1] is HAP1 MTAP-intact cell line. Nature of the test: SDMA in-cell western assay, HAP1 MTAP-intact. To be noted: Homo sapiens. An excerpt: (§1) Table 1 also indicates IC50 values in an MTAP-isogenic cell line pair for exemplary compounds in an SDMA in-cell western assay (columns 7-8). HAP1 MTAP-intact is a cell line in which endogenous levels of MTAP are expressed, and HAP1 MTAP-deleted is an MTAP-null cell line.

Test [2] has as its system HAP1 MTAP-deleted cell line. Nature of the test: SDMA in-cell western assay, HAP1 MTAP-deleted. Conditions: for IC50: Homo sapiens; for MTAP intact/deleted ratio: IC50 ratio HAP1 MTAP-intact / HAP1 MTAP-deleted, SDMA in-cell western.
Source text: as §1

In test [3] the test system is HAP1 MTAP-deleted cell line. Nature of the test: Viability assay, MTAP-deleted cell line. Conditions: Homo sapiens. The source says:
Table 1 additionally indicates IC50 values in a viability assay for the MTAP-deleted cell line (column 10), indicating the effect of treatment with compound on cell survival.

Where [4] appears, read: HAP1, SDMA in-cell western, HAP1 MTAP-intact, read-out: MTAP HAP1 intact IC50.
Setting [5] is: HAP1, SDMA in-cell western, HAP1 MTAP-deleted, read-out: HAP 1 MTAP deleted IC50.
Where [6] appears, read: HAP1, viability IC50, MTAP-deleted cell line, read-out: HAP1 MTAP deleted viability.
The mark [7] stands for this setting: HAP1, read-out: MTAP HAP1 intact IC50.
Where [8] appears, read: HAP1, read-out: HAP1 MTAP deleted IC50.
Where [9] appears, read: HAP1, read-out: HAP1 MTAP deleted viability.

Like-named read-outs stand apart in the source and are kept apart here.

On to `Cc1cc([C@@H]2CC[C@@H](C)CN2C(=O)C(=O)Nc2cncc(C(N)=O)c2)cc2cn[nH]c12` (single isomer, unassigned) [Compound 611], for which the figures for the IC50 in test [1] (setting [4]), in test [2] (setting [5]) and in test [3] (setting [6]) were over 1000 nM, over 1000 nM and over 10000 nM, respectively. For the same compound, in test [2], the MTAP intact/deleted ratio result was “C (an IC50 ratio of less than 3 fold)”.

For `Cc1cc(NC(=O)C(=O)N2C[C@@H](C)CC[C@@H]2c2ccc3c(c2)CC(=O)N3)cnc1N` (single isomer, unassigned) [Compound 678], the IC50 is under 100 nM in test [1] (setting [7]), under 100 nM in test [2] (setting [8]) and under 1000 nM in test [3] (setting [9]).

Consider `COc1ncc(NC(=O)C(=O)N2C[C@H](C)CC[C@H]2c2ccc3sc(C)nc3c2)cc1C(N)=O` (single isomer, unassigned) [Compound 808], for which the IC50 in test [1] (setting [4]) is over 1000 nM; in test [2] (HAP1, SDMA in-cell western, HAP1 MTAP-deleted, read-out: HAP1 MTAP deleted IC50), over 1000 nM; in test [3] (HAP1, viability assay, HAP1 MTAP-deleted, read-out: HAP1 MTAP deleted viability) it was over 10000 nM.

On to `C[C@H]1CC[C@H](c2ccc3cnccc3c2)N(C(=O)C(=O)Nc2cncc(C(N)=O)c2)C1` (single isomer, unassigned) [Compound 885], for which the IC50 in test [1] (setting [7]) was over 1000 nM; in test [2] (setting [8]) it was over 1000 nM; in test [3] (setting [9]) it was over 10000 nM.

In the case of `C[C@@H]1CC[C@@H](c2ccc3cnccc3c2)N(C(=O)C(=O)Nc2cncc(C(N)=O)c2)C1` (single isomer, unassigned) [Compound 892], the results for the IC50 in test [1] (setting [7]), in test [2] (setting [8]) and in test [3] (setting [9]) were over 1000 nM, under 100 nM and under 1000 nM, respectively.

For the compound `Cc1cc(NC(=O)C(=O)N2C[C@H](C)CC[C@H]2c2ccc3cnccc3c2)cnc1N` (single isomer, unassigned) [Compound 1000], the IC50 in test [1] (setting [7]) is 100 to 1000 nM; in test [2] (setting [8]), under 100 nM; in test [3] (setting [9]), under 1000 nM.

For the compound `Cc1cc(NC(=O)C(=O)N2C[C@@H](C)CC[C@@H]2c2ccc3cnccc3c2)cnc1N` (single isomer, unassigned) [Compound 1002], the IC50 in test [1] (setting [7]) is over 1000 nM; in test [2] (setting [8]), 100 to 1000 nM; in test [3] (setting [9]) it was over 10000 nM.

As to `Cc1cc(NC(=O)C(=O)N2C[C@H](C)CC[C@H]2c2ccc3sc(CN(C)C)nc3c2)cnc1N` (single isomer, unassigned) [Compound 1122], the IC50 in test [1] (setting [7]) is under 100 nM; in test [2] (setting [8]), under 100 nM; in test [3] (setting [9]), under 1000 nM.

Regarding `COc1ncc(NC(=O)C(=O)N2C[C@@H](C)CC[C@@H]2c2ccc3sc(C4CCN(C)CC4)nc3c2)cc1C(N)=O` (single isomer, unassigned) [Compound 1126], the IC50 is under 100 nM in test [1] (setting [7]), under 100 nM in test [2] (setting [8]) and under 1000 nM in test [3] (setting [9]).

In the case of `C[C@@H]1CC[C@@H](c2ccc3sc(C4CCN(C)CC4)nc3c2)N(C(=O)C(=O)Nc2cnc(N)c(C3CC3)c2)C1` (single isomer, unassigned) [Compound 1201], the values for the IC50 in test [1] (setting [7]), in test [2] (setting [8]) and in test [3] (setting [9]) were over 1000 nM, 100 to 1000 nM and under 1000 nM, respectively.

`C[C@H]1CC[C@H](c2ccc3sc(C4CCN(C)CC4)nc3c2)N(C(=O)C(=O)Nc2cnc(N)c(C3CC3)c2)C1` (single isomer, unassigned) [Compound 1222]: the IC50 in test [1] (setting [7]) was under 100 nM; in test [2] (setting [8]), under 100 nM; in test [3] (setting [9]) it was under 1000 nM.

With `Cc1cc(NC(=O)C(=O)N2C[C@@H](C)CC[C@@H]2c2ccc3sc(CCN(C)C)nc3c2)cnc1N` (single isomer, unassigned) [Compound 1279], the IC50 in test [1] (setting [7]) is under 100 nM; in test [2] (setting [8]), under 100 nM; in test [3] (setting [9]), under 1000 nM.

As for `Cc1cc(NC(=O)C(=O)N2C[C@H](C)CC[C@H]2c2ccc3sc(C4CCN(C)CC4)nc3c2)cnc1N` (single isomer, unassigned) [Compound 1293], the IC50 in test [1] (setting [7]) is 100 to 1000 nM; in test [2] (setting [8]) it was under 100 nM; in test [3] (setting [9]), under 1000 nM.

Take `Cc1cc(NC(=O)C(=O)N2C[C@@H](C)CC[C@@H]2c2ccc3sc(C4CCN(C)CC4)nc3c2)cnc1N` (single isomer, unassigned) [Compound 1314]: the values for the IC50 in test [1] (setting [7]), in test [2] (setting [8]) and in test [3] (setting [9]) were under 100 nM, under 100 nM and under 1000 nM, respectively.

For `C[C@H]1CC[C@H](c2ccc3sc(C4CCN(C)CC4)nc3c2)N(C(=O)C(=O)Nc2cnc(N)c(C3COC3)c2)C1` (single isomer, unassigned) [Compound 1334], the IC50 is under 100 nM in test [1] (setting [7]), under 100 nM in test [2] (setting [8]) and under 1000 nM in test [3] (setting [9]).

Turning to `Cc1cc(NC(=O)C(=O)N2C[C@H](C)CC[C@H]2c2ccc3cn[nH]c3c2)cnc1N` (stereo in doubt) [Compound 613, N-(6-amino-5-methyl-3-pyridyl)-2-[(2S,5R)-2-(1H-indazol-6-yl)-5-methyl-1-piperidyl]-2-oxo-acetamide], the results for the IC50 in test [1] (setting [4]), in test [2] (setting [5]) and in test [3] (setting [6]) were over 1000 nM, over 1000 nM and over 10000 nM, respectively. In addition, in test [2], the MTAP intact/deleted ratio entry is given as “C (an IC50 ratio of less than 3 fold)”.

Consider `Cc1cc(NC(=O)C(=O)N2C[C@@H](C)CC[C@@H]2c2ccc3c[nH]nc3c2)cnc1N` (stereo in doubt) [Compound 636, N-(6-amino-5-methyl-3-pyridyl)-2-[(2R,5S)-2-(1H-indazol-6-yl)-5-methyl-1-piperidyl]-2-oxo-acetamide], for which the IC50 is 100 to 1000 nM in test [1] (setting [4]), under 100 nM in test [2] (setting [5]) and under 1000 nM in test [3] (setting [6]). The MTAP intact/deleted ratio entry in test [2] was “A (an IC50 ratio greater than or equal to 10 fold)”.

On to `CCc1cc(NC(=O)C(=O)N2C[C@H](C)CC[C@H]2c2ccc3scnc3c2)cnc1N` (stereo in doubt) [Compound 694, N-(6-amino-5-ethyl-3-pyridyl)-2-[(2S,5R)-2-(1,3-benzothiazol-5-yl)-5-methyl-1-piperidyl]-2-oxo-acetamide], for which the figures for the IC50 in test [1] (setting [7]), in test [2] (setting [8]) and in test [3] (setting [9]) were over 1000 nM, 100 to 1000 nM and 1000 to 10000 nM, respectively.

Take `CCc1cc(NC(=O)C(=O)N2C[C@@H](C)CC[C@@H]2c2ccc3scnc3c2)cnc1N` (stereo in doubt) [Compound 701, N-(6-amino-5-ethyl-3-pyridyl)-2-[(2R,5S)-2-(1,3-benzothiazol-5-yl)-5-methyl-1-piperidyl]-2-oxo-acetamide]: the IC50 was 100 to 1000 nM in test [1] (setting [7]), under 100 nM in test [2] (setting [8]) and under 1000 nM in test [3] (setting [9]).

Take `Cc1cc(NC(=O)C(=O)N2CCCCC2c2ccccc2)cnc1C` (stereo not drawn) [Compound 139, N-(5,6-dimethylpyridin-3-yl)-2-oxo-2-(2-phenylpiperidin-1-yl)acetamide]: the results for the IC50 in test [1] (setting [7]), in test [2] (setting [8]) and in test [3] (setting [9]) were over 1000 nM, over 1000 nM and over 10000 nM, respectively.

On to `Cc1cc(NC(=O)C(=O)N2C[C@@H](C)CC[C@@H]2c2ccc3scnc3c2)cnc1N` [Compound 616, N-(6-amino-5-methyl-3-pyridyl)-2-[(2R,5S)-2-(1,3-benzothiazol-5-yl)-5-methyl-1-piperidyl]-2-oxo-acetamide], for which the figures for the IC50 in test [1] (setting [7]), in test [2] (setting [8]) and in test [3] (setting [9]) were 100 to 1000 nM, under 100 nM and under 1000 nM, respectively.

`Cc1cc(NC(=O)C(=O)N2C[C@@H](C)CC[C@@H]2c2ccc3sc(N4CCN(C)CC4)nc3c2)cnc1N` [Compound 1158, N-(6-amino-5-methylpyridin-3-yl)-2-((2R,5S)-5-methyl-2-(2-(4-methylpiperazin-1-yl)benzo[d]thiazol-5-yl)piperidin-1-yl)-2-oxoacetamide]: the IC50 in test [1] (setting [7]) is under 100 nM; in test [2] (setting [8]), under 100 nM; in test [3] (setting [9]) it was under 1000 nM.

For the origin of these results see patent US11999727B2 (Tango Therapeutics, Inc., priority 2020, dated 2024).
